These results are taken from patent US7008666B2, “Method of inhibiting overactivity of phagocytes or lymphocytes in an individual” (Hormos Nutraceutical Oy Ltd., priority 2001, dated 2006).

SMILES strings stand for the structures.

In test [1] the target is T1, Myeloperoxidase (Homo sapiens, UniProt P05164).
T1 construct: And Myeloperoxidase Activity Of Human Neutrophils In Vitro; endogenous in cells; host or cells: human neutrophils isolated from freshly drawn heparinized whole blood
The test can be described thus: Myeloperoxidase activity, tetramethylbenzidine oxidation. Type of test: biochemical. The following applies: human neutrophils in vitro. The procedure: (§1) Isolation of neutrophils: Neutrophils were isolated from 30 mL freshly drawn heparinized whole blood, after dextran sedimentation of erythrocytes for 30 min. The leucocyte rich plasma was layered over an equal volume of Percoll (Sigma) and centrifuged at 400×g for 15 min. Erythrocytes, contaminating the neutrophil pellet, were destroyed by osmotic lysis with 0.87% NH4Cl (pH 7.0). Neutrophils were washed with PBS (pH 7.1) and centrifuged at 200×g for 10 min. Cells were resuspended in fresh HBS (containing 0.8 g NaCl, 0.4 g KCl, 0.06 g Na2HPO4×2 H2O, 0.06 g KH2PO4, 0.1 g MgSO4×7H2O and 1 g glucose in 1000 mL of distilled water; pH adjusted to 7.4 by 7% NaHCO3) and counted before use.
Myeloperoxidase activity: Myeloperoxidase activity was determined by the method of Suzuki et al. (Suzuki, K., Ota, H., Sasagawa, S., Sakatoni, T., Fujikura, T., Ann Biochem 132:345–352, 1983) in which the enzyme catalyzes the oxidation of 3,3′,5,5′-tetramethylbenzidine by H2O2 to yield a blue chromogen with a maximum wavelength of 655 nm. Studies on myeloperoxidase inhibition in vitro were performed by adding test compounds to incubation mixtures in a small volume (2% of incubation volume) of ethanol. […] Based on these experiments, a IC50-value (concentration that under these circumstances produced a 50% inhibition of myeloperoxidase activity) was determined.

Test [2] concerns human neutrophils. The test can be described thus: Neutrophil oxidative burst, PMA-stimulated, lucigenin chemiluminescence. It is filed as cell-based. The following applies: human neutrophils in vitro, PMA stimulus. On the procedure: as §1
Measurement of neutrophil oxidative burst: Production of reactive oxygen species by neutrophils was recorded by chemiluminescent analysis. Chemiluminescence measurements were performed with Bio-Orbit 1251 Luminometer connected to a personal computer with special programs for the assays (Bio-Orbit, Turku, Finland). The protocol for each assay included automatic pipetting of the appropriate reagent that initiated the reaction in all cuvettes. Six or twelve samples were analyzed simultaneously, depending on the assay. Disposable plastic cuvettes were used throughout.
One millilitre of cell suspension (final cell count 10^6 cells/mL) was placed in plastic cuvettes, and the level of resting chemiluminescence was recorded before addition of the stimulus; production of reactive oxygen by neutrophils (oxidative burst) was stimulated by addition of phorbol-myristate-acetate (PMA). The buffer (HBS, pH 7.4) was pipetted in a volume of 0.930 mL in the luminometer cuvette. Test compounds were added to incubation mixtures in a small volume (2% of total incubation volume) of ethanol. […] Fifty microliters of 5 mM lucigenin was added, and the reaction was initiated by 0.020 mL of 0.1 mM PMA at 37° C. The chemiluminescence was measured for about 45 min at 1 min cycles and the area under curve (integral) was calculated. […] Based on these experiments, a IC50-value (concentration that under these circumstances produced a 50% inhibition of neutrophil oxidative burst) was determined.

Test [3] deals with Fas receptor on Jurkat cells. The test can be described thus: Fas receptor surface (FasR) expression, immunostaining. Type of test: cell-based, human. The note with it: 50 or 100 μM, versus untreated control. The procedure:
Effect of lignans on Fas receptor surface (FasR) expression: The experiment was performed essentially as described in the literature (Brunner et al., Nature 373, 441–443, 1995). The surface expression of the FasR was measured by immunostaining alive Jurkat cells with an monoclonal anti-FasR antibody (Medical Biological Laboratories Co. Ltd, Japan, clone CH-11) and an anti-mouse antibody labelled with FITC (Alexis Biochemicals Ltd, USA) according to manufacturers instructions. The fluorescence intensity equals the amount of antibody bound to the FasR on the cell membrane.

Test [4] deals with Monocytes. The test can be described thus: LPS-induced TNF-α production by monocytes, ELISA. Type of test: cell-based, human. The note with it: 100 μM, 24 h pre-incubation, LPS 1 μg/ml for 48 h; IL-10 100 U/ml. The procedure:
Monocytes were isolated from human peripheral blood mononuclear cells by magnetic sorting. The cells were pre-incubated with the lignans matairesinol (as a reference compound) and enterolactone (1–100μM) or interleukin 10 (IL-10) (100 U/ml) for 24 hours before addition of LPS (1 μg/ml) into cell culture. After additional 48 hours the levels of TNF- from culture supernatants were measured by ELISA.
On the technique in general: In an ELISA, binding on a coated surface is turned into a signal by an enzyme label.

Test [5] concerns Monocytes. The note with it: 1200 IU per day for 8 weeks, healthy volunteers; cited from earlier work.
Test [6] deals with neutrophils. The note with it: 6.25 mg daily for 1 week; cited from earlier work.
Test [7] deals with mononuclear cells. The following applies: 6.25 mg daily for 1 week; cited from earlier work.

T1 sequence (P05164 279-745 limits assumed): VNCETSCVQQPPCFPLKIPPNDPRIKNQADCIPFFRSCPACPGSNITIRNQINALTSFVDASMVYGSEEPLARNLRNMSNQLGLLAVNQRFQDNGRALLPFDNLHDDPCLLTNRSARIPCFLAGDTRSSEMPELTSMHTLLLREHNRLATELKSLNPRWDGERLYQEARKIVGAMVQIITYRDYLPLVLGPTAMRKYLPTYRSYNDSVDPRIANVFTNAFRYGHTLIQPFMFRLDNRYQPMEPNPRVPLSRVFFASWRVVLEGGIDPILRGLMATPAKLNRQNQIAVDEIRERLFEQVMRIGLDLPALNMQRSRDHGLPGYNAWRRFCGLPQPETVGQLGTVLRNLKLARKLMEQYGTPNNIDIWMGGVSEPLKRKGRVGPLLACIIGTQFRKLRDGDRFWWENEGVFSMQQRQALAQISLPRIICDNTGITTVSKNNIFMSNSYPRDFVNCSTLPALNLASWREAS
T1 sequence (P05164 165-273 limits assumed): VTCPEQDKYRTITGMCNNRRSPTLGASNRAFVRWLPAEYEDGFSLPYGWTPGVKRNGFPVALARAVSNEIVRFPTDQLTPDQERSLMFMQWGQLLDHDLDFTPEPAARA

On to `CN(C)CCOc1ccc(/C(=C(/CCCl)c2ccccc2)c2ccc(O)cc2)cc1` [4-OH-toremifene, reference compound], for which the results for the IC50 in test [1] and in test [2] were 54 µM and 1.7 µM, respectively.
For `COc1cc(CC2C(=O)OCC2C(O)c2ccc(O)c(OC)c2)ccc1O` (stereo not shown) [Hydroxymatairesinol, hydroxymatairesinol], the IC50 in test [1] was found to be 6.8 µM; in test [2] (Neutrophil), 5.3 µM. In addition, the Fas surface expression result in test [3] was “elevated level of Fas protein”.
On to `COc1cc(C[C@H]2COC(=O)[C@@H]2Cc2ccc(O)c(OC)c2)ccc1O` [Matairesinol, matairesinol], for which the IC50 in test [1] was determined as 44.5 µM; in test [2] (Neutrophil), 11 µM. For the same compound, the “LPS-induced TNF-α production compared with positive control IL-10” value in test [4] is “at least as effective”. In addition, the Fas surface expression result in test [3] is listed as “elevated level of Fas protein”.
As for `CC(=O)C(=Cc1cc(O)c(O)c([N+](=O)[O-])c1)C(C)=O` [Nitecapone, nitecapone, reference compound], the values for the IC50 in test [1] and in test [2] (Neutrophil) were 2.3 µM and 7.5 µM, respectively.
In the case of `Cc1c(C)c2c(c(C)c1O)CC[C@@](C)(CCC[C@H](C)CCC[C@H](C)CCCC(C)C)O2` [alpha-tocopherol], the “decrease in reactive oxygen production by monocytes” value in test [5] was 50%–60.
For the compound `COc1ccccc1OCCNCC(O)COc1cccc2[nH]c3ccccc3c12` (stereo not shown) [carvedilol], in test [6], the “decrease of reactive oxygen production by neutrophils” value is recorded as 59%. Also, in test [7], the “decrease of reactive oxygen production by mononuclear cells” value is given as 62%.
Regarding `O=C1OC[C@H](Cc2cccc(O)c2)[C@H]1Cc1cccc(O)c1` [enterolactone], the “LPS-induced TNF-α production compared with positive control IL-10” value in test [4] was “at least as effective”. Moreover, the Fas surface expression result in test [3] is recorded as “elevated level of Fas protein”.

One may read the IC50 as the concentration at which inhibition is half-maximal. Read a low IC50 as inhibition by little substance.
